Key:
[1] = tested on: primary mouse hepatocytes
[2] = in vivo; cited from earlier work
[3] = tested on: primary mouse hepatocytes; assay: Gene expression (Affymetrix Mouse Genome 430 2.0) in primary mouse hepatocytes, true vs false GTX, 24 h and 48 h

In the case of `Cl.ClCc1ccccn1` [2-CP, 2-(Chloromethyl)pyridine.HCl], the “Gene expression data AF204959 (Cyp3a25 /// LOC622249)” value [1] is given as −0.5019, the GTX in vivo [2] is given as “−” and the “Gene expression AA561726 average” value [3] is given as −0.4297. For the same compound, the “Gene expression AF000969 average” value [3] was 0.2944, the “Gene expression AF022072 average” value [3] was 0.04067 and the “Gene expression AF033112 average” value [3] was −0.6651. The “Gene expression AF055573 average” value [3] was 0.3686, the “Gene expression AF069954 average” value [3] was 0.199 and the “Gene expression AF297615 average” value [3] was −0.5906. The “Gene expression AF335325 average” value [3] was −0.05667, the “Gene expression AI594683 average” value [3] was −0.2197 and the “Gene expression AI747296 average” value [3] was −0.2637. The “Gene expression AK005731 average” value [3] was −0.6019, the “Gene expression AK007854 average” value [3] was 0.5513 and the “Gene expression AK010447 average” value [3] was −0.05023. The “Gene expression AK010738 average” value [3] was 0.0059, the “Gene expression AK014608 average” value [3] was −0.01263 and the “Gene expression AK017734 average” value [3] was 0.1489. For the same compound, the “Gene expression AK018383 average” value [3] was −0.2158, the “Gene expression AK019979 average” value [3] was −0.4249 and the “Gene expression AV095209 average” value [3] was −0.03467. The “Gene expression AV141095 average” value [3] was −0.4102, the “Gene expression AV173869 average” value [3] was 0.3109 and the “Gene expression AV216768 average” value [3] was −0.4179. For the same compound, the “Gene expression AV219418 average” value [3] was 0.8281, the “Gene expression AV221299 average” value [3] was 0.4545 and the “Gene expression AV246296 average” value [3] was −0.3558. The “Gene expression AV251625 average” value [3] was 0.06723, the “Gene expression AV254764 average” value [3] was 0.396 and the “Gene expression AV327248 average” value [3] was −0.2215. For the same compound, the “Gene expression BB009155 average” value [3] was −0.348, the “Gene expression BB027848 average” value [3] was 0.2054 and the “Gene expression BB043558 average” value [3] was −0.2293. The “Gene expression BB046347 average” value [3] was 0.187, the “Gene expression BB140436 average” value [3] was 0.2823 and the “Gene expression BB204486 average” value [3] was −0.3875. For the same compound, the “Gene expression BB223872 average” value [3] was 0.1743, the “Gene expression BB246912 average” value [3] was 0.5739 and the “Gene expression BB275142 average” value [3] was 0.091. For the same compound, the “Gene expression BB458460 average” value [3] was −0.1792, the “Gene expression BB463610 average” value [3] was 0.0113 and the “Gene expression BB730977 average” value [3] was −0.7313. For the same compound, the “Gene expression BB743970 average” value [3] was −0.1686, the “Gene expression BB770528 average” value [3] was −0.4836 and the “Gene expression BB781615 average” value [3] was 0.007033. The “Gene expression BC003284 average” value [3] was −0.2395, the “Gene expression BC004827 average” value [3] was −0.2477 and the “Gene expression BC005552 average” value [3] was 0.1255. For the same compound, the “Gene expression BC006713 average” value [3] was 0.2405, the “Gene expression BC010318 average” value [3] was 0.1986 and the “Gene expression BC012247 average” value [3] was 0.5221. For the same compound, the “Gene expression BC012955 average” value [3] was 0.2863, the “Gene expression BC013893 average” value [3] was 0.4871 and the “Gene expression BC017615 average” value [3] was −0.3193. The “Gene expression BC019379 average” value [3] was −0.1926, the “Gene expression BC019882 average” value [3] was 0.8148 and the “Gene expression BC021352 average” value [3] was −0.7192. For the same compound, the “Gene expression BC022148 average” value [3] was 0.1919, the “Gene expression BC025169 average” value [3] was 0.9283 and the “Gene expression BC026131 average” value [3] was 0.4079. The “Gene expression BC027026 average” value [3] was −0.2177, the “Gene expression BC027121 average” value [3] was −0.6553 and the “Gene expression BC027185 average” value [3] was 0.06273. The “Gene expression BE956581 average” value [3] was 0.0444, the “Gene expression BF719766 average” value [3] was −0.1259 and the “Gene expression BG065754 average” value [3] was −0.2817. For the same compound, the “Gene expression BG066491 average” value [3] was −0.3489, the “Gene expression BG076151 average” value [3] was −0.0769 and the “Gene expression BG076333 average” value [3] was 0.4759. For the same compound, the “Gene expression BG797099 average” value [3] was 0.004233, the “Gene expression BG967046 average” value [3] was −0.1557 and the “Gene expression BI651416 average” value [3] was −0.08753. The “Gene expression BI966443 average” value [3] was −0.01713, the “Gene expression BM198879 average” value [3] was −0.1026 and the “Gene expression BM200015 average” value [3] was −0.3607. For the same compound, the “Gene expression BM230508 average” value [3] was −0.2554, the “Gene expression BM936480 average” value [3] was −0.07417 and the “Gene expression BQ174991 average” value [3] was 0.1864. The “Gene expression L21027 average” value [3] was −0.5404, the “Gene expression NM_007556 average” value [3] was 0.1685 and the “Gene expression NM_007980 average” value [3] was −0.2848. For the same compound, the “Gene expression NM_007987 average” value [3] was −0.3447, the “Gene expression NM_008522 average” value [3] was 0.0213 and the “Gene expression NM_008935 average” value [3] was −0.2124. The “Gene expression NM_009897 average” value [3] was −0.06103, the “Gene expression NM_011075 average” value [3] was −0.5782 and the “Gene expression NM_011176 average” value [3] was −0.0046. The “Gene expression NM_011316 average” value [3] was 0.5829, the “Gene expression NM_012006 average” value [3] was −0.1277 and the “Gene expression NM_013642 average” value [3] was 0.3967. For the same compound, the “Gene expression NM_013738 average” value [3] was −0.373, the “Gene expression NM_013929 average” value [3] was −0.5291 and the “Gene expression NM_018881 average” value [3] was −0.0599. The “Gene expression NM_019738 average” value [3] was −0.5143, the “Gene expression NM_030697 average” value [3] was −0.0882 and the “Gene expression NM_053122 average” value [3] was 0.1396. For the same compound, the “Gene expression NM_134147 average” value [3] was 0.6449, the “Gene expression NM_134188 average” value [3] was −0.1373 and the “Gene expression X62701 average” value [3] was −0.146. The “Gene expression data AF000969 (Cadps2)” value [3] was −0.1003, the “Gene expression data AF022072 (Grb10)” value [3] was 0.621 and the “Gene expression data AF065917 (Lif)” value [3] was 0.01213. For the same compound, the “Gene expression data AF297615 (Ggta1)” value [3] was 0.06963, the “Gene expression data AI594683 (Dmn)” value [3] was −0.3157 and the “Gene expression data AI596632 (Ptprg /// LOC632664)” value [3] was 0.2251. For the same compound, the “Gene expression data AI987929 (Ndrg1)” value [3] was −0.1004, the “Gene expression data AK004419 (Fbxl17)” value [3] was −0.1203 and the “Gene expression data AK005731 (1700007K13Rik)” value [3] was 0.1965. For the same compound, the “Gene expression data AK007766 (1810044A24Rik)” value [3] was −0.1235, the “Gene expression data AK007854 (1810053B23Rik)” value [3] was −0.4492 and the “Gene expression data AK009736 (Gpr137b /// LOC664862 /// LOC673335)” value [3] was 0.9644. The “Gene expression data AK010447 (Smyd3)” value [3] was 0.06097, the “Gene expression data AK014608 (4632434l11Rik)” value [3] was 0.5726 and the “Gene expression data AK019979 (2610528E23Rik)” value [3] was 0.3731. For the same compound, the “Gene expression data AV095209 (Mthfd1l)” value [3] was 0.5754, the “Gene expression data AV141095 (1110033M05Rik)” value [3] was 0.1817 and the “Gene expression data AV173571 (1700106N22Rik)” value [3] was −0.01367. For the same compound, the “Gene expression data AV219418 (Ldhb)” value [3] was −0.7968, the “Gene expression data AV223474 (Zdhhc14)” value [3] was −0.4094 and the “Gene expression data AV298304 (Homez)” value [3] was 0.1881. For the same compound, the “Gene expression data AV327248 (Zfp365 /// LOC674611)” value [3] was 0.1477, the “Gene expression data AV377066 (9130221J18Rik)” value [3] was −0.6354 and the “Gene expression data AW240761 (Tbc1d5)” value [3] was 0.02803. The “Gene expression data AW543460 (Pard3)” value [3] was 0.2263, the “Gene expression data AW543723” value [3] was 0.1487 and the “Gene expression data AW986246 (Maoa)” value [3] was 1.21. For the same compound, the “Gene expression data BB027848 (4732466D17Rik)” value [3] was −0.5716, the “Gene expression data BB043558 (9230114K14Rik)” value [3] was 0.4946 and the “Gene expression data BB275142 (AW456874)” value [3] was −0.1954. The “Gene expression data BB308836 (Ppm1l)” value [3] was −0.3692, the “Gene expression data BB318221 (Zdhhc14)” value [3] was −0.2464 and the “Gene expression data BB463610 (4632434l11Rik)” value [3] was 0.3848. For the same compound, the “Gene expression data BB526605 (Mipol1)” value [3] was −0.2134, the “Gene expression data BB770528 (Rai2)” value [3] was −0.3271 and the “Gene expression data BB821363 (Scfd2)” value [3] was −0.1883. The “Gene expression data BC004827 (Psat1)” value [3] was 0.3654, the “Gene expression data BC008626 (Icam1)” value [3] was −0.242 and the “Gene expression data BC010462 (BC010462)” value [3] was −0.5895. The “Gene expression data BC012247 (Dcxr)” value [3] was −0.3261, the “Gene expression data BC012260 (Psmf1)” value [3] was −0.824 and the “Gene expression data BC015270 (Hist2h3c2)” value [3] was −0.231. The “Gene expression data BC016073 (Cdkal1)” value [3] was 0.03017, the “Gene expression data BC016265 (Ube2e2)” value [3] was 0.0177 and the “Gene expression data BC019882 (Acaa1b)” value [3] was −0.0399. For the same compound, the “Gene expression data BC025501 (Aaas)” value [3] was 0.0663, the “Gene expression data BC025837 (Sbk1)” value [3] was −0.5042 and the “Gene expression data BC025915 (Cova1)” value [3] was 0.05827. The “Gene expression data BC026422 (Tgm1)” value [3] was −0.3825, the “Gene expression data BF719766 (Thyn1)” value [3] was 0.0395 and the “Gene expression data BG065754 (Ccng1)” value [3] was 0.3287. For the same compound, the “Gene expression data BG066903 (Kif16b)” value [3] was 0.3368, the “Gene expression data BG069873 (Gnb1l)” value [3] was −0.1027 and the “Gene expression data BG070887 (Gtdc1)” value [3] was −0.06773. The “Gene expression data BG076151 (Ppm1d)” value [3] was 0.1213, the “Gene expression data BG261907 (Large)” value [3] was −0.1177 and the “Gene expression data BI651416 (Cdc42bpg)” value [3] was 0.05237. For the same compound, the “Gene expression data BI660702 (Ell3)” value [3] was 0.08167, the “Gene expression data BM198879 (Ercc5)” value [3] was 0.2935 and the “Gene expression data BM230508 (A030007D23Rik)” value [3] was 0.3615. The “Gene expression data NM_007987 (Fas)” value [3] was 0.2313, the “Gene expression data NM_008522 (Ltf)” value [3] was −0.3581 and the “Gene expression data NM_008576 (Abcc1)” value [3] was 1.199. The “Gene expression data NM_011176 (St14)” value [3] was −0.05393, the “Gene expression data NM_011316 (Saa4)” value [3] was −0.04463 and the “Gene expression data NM_012006 (Acot1)” value [3] was 0.6012. For the same compound, the “Gene expression data NM_013866 (Zfp385)” value [3] was −0.1346, the “Gene expression data NM_018770 (Igsf4a)” value [3] was 0.14 and the “Gene expression data NM_021451 (Pmaip1)” value [3] was 0.02357. For the same compound, the “Gene expression data NM_025770 (Atg10)” value [3] was 0.3445, the “Gene expression data NM_028803 (Gbe1)” value [3] was 0.5242 and the “Gene expression data NM_030697 (Ankrd47)” value [3] was −0.5785. For the same compound, the “Gene expression data NM_053168 (Trim11)” value [3] was −0.06783, the “Gene expression data NM_134188 (Acot2)” value [3] was 0.501 and the “Gene expression data Y15910 (Diap2)” value [3] was 0.06693.

From patent US20120122727A1, “IN VITRO METHOD FOR PREDICTING WHETHER A COMPOUND IS GENOTOXIC IN VIVO” (priority 2009, published 2012)
